Laboratory results from publication PMC7246765, “Development of a Radiofluorinated Adenosine A2B Receptor Antagonist as Potential Ligand for PET Imaging” (International Journal of Molecular Sciences, 2020).
Values joined by “and” are separate entries in the source; they are usually repeats but may differ in a detail not shown here. Identical values can stand only once. Blank lines part the entries; values can stand above or below the molecule they belong to.

Legend:
[1] = molecular target: T1, human adenosine A2B receptor (Homo sapiens, UniProt P29275); assay: Competitive radioligand binding with [3H]PSB-603, membranes of CHO or HEK cells; conditions: mean ± SEM of three independent assays
T1 construct: host or cells: CHO or HEK cells
T1 sequence (P29275 1-332): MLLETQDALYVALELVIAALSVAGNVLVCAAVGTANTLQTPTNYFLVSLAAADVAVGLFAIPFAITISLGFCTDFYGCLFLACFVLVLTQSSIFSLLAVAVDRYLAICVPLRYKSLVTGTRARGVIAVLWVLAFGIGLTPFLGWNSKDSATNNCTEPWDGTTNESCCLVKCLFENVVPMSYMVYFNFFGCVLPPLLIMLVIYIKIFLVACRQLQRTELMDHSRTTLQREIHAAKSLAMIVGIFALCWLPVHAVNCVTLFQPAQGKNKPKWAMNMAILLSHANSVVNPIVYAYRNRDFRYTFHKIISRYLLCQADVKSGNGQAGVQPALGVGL
Method: (§1) The binding affinities of 2 and 9 at the four human adenosine receptor subtypes A2B, A2A, A1, and A3, presented in Table 1, were determined in competitive binding assays using appropriate radioligands and membrane preparations of Chinese hamster ovary (CHO) cells or human embryonic kidney (HEK) cells, respectively, recombinantly expressing the corresponding human receptor subtype.
(§2) Membrane preparations of recombinant CHO or HEK (human embryonic kidney) cells expressing the respective human adenosine receptor subtype were obtained according to Borrman et al. or purchased from Perkin Elmer, Germany. Radioligand binding assays using human A1, A2A, A2B and A3 receptors were performed according to Alnouri et al..
[^3H]8-(4-[4-(4-chlorophenyl)piperazine-1-sulfonyl]phenyl)-1-propyl-2,3,6,7-tetrahydro-1H-purine-2,6-dione ([^3H]PSB-603, molar activity: 73Ci/mmol, 0.3 nM [26]) for the A2B receptor, and
(§3) [^3H](R)-8-ethyl-4-methyl-2-(phenyl)1,4,7,8-tetrahydro-5H-imidazo[2,1-i]purin-5-one ([^3H]PSB-11, molar activity: 53 Ci/mmol, 1 nM [30]) for the A3 receptor. Three separate experiments were performed to determine the Ki values. All data were analyzed with GraphPad Prism, Version 4.1 (GraphPad Inc., La Jolla, CA,USA).

[2] = molecular target: T2, human adenosine A2A receptor (Homo sapiens, UniProt P29274); assay: Competitive radioligand binding with [3H]MSX-2, membranes of CHO or HEK cells
T2 construct: host or cells: CHO or HEK cells
T2 sequence (P29274 whole entry): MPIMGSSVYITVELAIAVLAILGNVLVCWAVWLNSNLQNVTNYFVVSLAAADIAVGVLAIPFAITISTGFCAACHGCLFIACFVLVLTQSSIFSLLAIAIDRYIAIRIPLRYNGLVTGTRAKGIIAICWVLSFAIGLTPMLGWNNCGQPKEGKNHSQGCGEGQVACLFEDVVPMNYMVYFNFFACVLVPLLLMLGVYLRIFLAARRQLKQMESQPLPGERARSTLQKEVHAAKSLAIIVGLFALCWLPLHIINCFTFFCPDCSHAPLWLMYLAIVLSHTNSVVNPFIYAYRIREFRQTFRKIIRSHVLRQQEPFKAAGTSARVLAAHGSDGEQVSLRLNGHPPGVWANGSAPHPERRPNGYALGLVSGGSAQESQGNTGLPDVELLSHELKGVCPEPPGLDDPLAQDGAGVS
Method: as §1, §2
[^3H]3-(3-hydroxypropyl)-7-methyl-8-(m-methoxystyryl)-1-propargylxanthine, ([^3H]MSX-2, molar activity: 84 Ci/mmol, 1 nM [29]) for the A2A receptor,
as §3

[3] = molecular target: T3, human adenosine A1 receptor (Homo sapiens, UniProt P30542); assay: Competitive radioligand binding with [3H]CCPA, membranes of CHO or HEK cells
T3 construct: host or cells: CHO or HEK cells
T3 sequence (P30542 1-326): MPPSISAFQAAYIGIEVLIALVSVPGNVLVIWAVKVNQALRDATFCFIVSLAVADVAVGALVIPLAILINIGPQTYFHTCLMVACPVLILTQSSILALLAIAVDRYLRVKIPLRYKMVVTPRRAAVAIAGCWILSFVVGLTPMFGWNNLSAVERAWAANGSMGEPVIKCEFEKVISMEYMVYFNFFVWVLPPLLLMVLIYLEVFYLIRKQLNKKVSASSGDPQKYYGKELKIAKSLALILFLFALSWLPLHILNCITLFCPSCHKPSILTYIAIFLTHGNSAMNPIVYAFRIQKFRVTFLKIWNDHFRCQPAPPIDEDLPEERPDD
Method: as §1, §2
[^3H]2-Chloro-N^6cyclopentyladenosine ([^3H]CCPA, molar activity: 58 Ci/mmol, 1 nM [28]) for the A1 receptor,
as §3

[4] = molecular target: T4, human adenosine A3 receptor (Homo sapiens, UniProt P0DMS8); assay: Competitive radioligand binding with [3H]PSB-11, membranes of CHO or HEK cells
T4 construct: host or cells: CHO or HEK cells
T4 sequence (P0DMS8 1-318): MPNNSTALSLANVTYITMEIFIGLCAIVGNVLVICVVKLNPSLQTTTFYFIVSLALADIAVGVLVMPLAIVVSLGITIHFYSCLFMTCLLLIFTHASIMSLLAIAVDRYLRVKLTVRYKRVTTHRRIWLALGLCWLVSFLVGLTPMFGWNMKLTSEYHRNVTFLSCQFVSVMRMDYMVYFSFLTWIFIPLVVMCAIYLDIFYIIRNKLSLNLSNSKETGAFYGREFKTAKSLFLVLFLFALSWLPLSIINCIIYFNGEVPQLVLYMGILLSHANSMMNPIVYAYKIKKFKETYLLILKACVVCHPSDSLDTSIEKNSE
Method: as §1, §2, §3

[5] = parameters: method as in PMID 30104122; conditions: mice, 30 min p.i.; cited from earlier work
[6] = Shake-flask lipophilicity, n-octanol/phosphate-buffered saline; format: physicochemical; conditions: n-octanol/PBS, n = 4
Excerpt: The partition coefficient of [^18F]9 was experimentally determined for the n-octanol/PBS system by the shake-flask method as described previously.

[7] = In vivo metabolism in mice, plasma and urine analysed by RP-HPLC and MLC; parameters: species or system CD-1 mice; conditions: 30 min p.i.
Method: The metabolism of [^18F]9 in vivo was investigated in CD-1 mice by taking blood and urine samples at 30 min post i.v. injection of the radiotracer (n = 2). Analysis of the respective samples was performed by micellar (MLC) and reversed-phase chromatography (RP-HPLC) as two complementary HPLC methods. MLC is also a reversed-phase HPLC mode, but it uses a mobile phase consisting of an aqueous solution with a surfactant above its critical micellar concentration. The formed micelles are able to dissolve the proteins and other components of a biological sample and therefore enable a direct injection of the plasma probe into the HPLC system without eliminating the tissue matrix. In contrast, for RP-HPLC analysis, aliquots of the plasma samples were treated with a mixture of ACN/water to precipitate the proteins, resulting in recoveries of activity of about 93%.
For metabolism studies (n = 2), [^18F]9 (30–40 MBq) was administered as a bolus in awake female CD-1 mice (10–12 weeks, 25–32 g) via the tail vein. At 30 min p.i., the animals were slightly anesthetized with isoflurane, and blood was sampled from retro-orbital plexus. Blood plasma was obtained as a supernatant after centrifugation of the whole blood samples (14,000 rpm, 1 min; Centrifuge 5418, Eppendorf Vertrieb Deutschland GmbH, Wesseling-Berzdorf, Germany). After cervical luxation of the animals, urine samples were obtained. All samples were weighed and the respective activity measured in a dose calibrator (ISOMED 2010; MED Nuklear-Medizintechnik Dresden GmbH, Dresden, Germany).
MLC: For preparation of the MLC samples, mouse plasma (20–50 µL) was dissolved in 200 µL of 200 mM aq. sodium dodecyl sulfate (SDS) and injected into the MLC system. The MLC system was built up as described previously. Separations were performed using a Reprosil-Pur C18-AQ column (250 × 4.6 mm + 10 mm pre-column, particle size: 10 µm) and an eluent mixture of EtOH/100 mM aq. SDS/25 mM (NH4)2HPO4 in gradient mode (0–10 min at 100% 100 mM aq. SDS, 10–15 min up to 10% EtOH, 15–20 min at 10% EtOH, 20–21 min up to 100% 100 mM aq. SDS; 21–30 min at 100% 100 mM aq. SDS) at a flow rate of 1.0 mL/min. The same HPLC apparatus was used as described in the radiochemistry part in generals.
RP-HPLC: Protein precipitation was performed by addition of an ice-cold mixture of ACN/water (9/1; v/v) in a ratio of 4:1 (v/v) of organic solvent to plasma. The sample workup was performed according to a procedure previously described in detail. The urine samples were diluted with water and directly injected. To analyze the samples, the same HPLC apparatus and method was used as described in the radiochemistry section.

[8] = Dynamic small-animal PET biodistribution, baseline and blocking with compound 2; format: in vivo, female CD-1 mice; conditions: for SUV 60 min p.i. lung / TAC peak SUV lung: single animals, n = 2
Excerpt: We then performed a pilot study to estimate very basic characteristics of the pharmacokinetics of the new radiotracer via dynamic small-animal PET imaging with [^18F]9 in female CD-1 mice. The time–activity curves (TACs) obtained in different tissues under both baseline (administration of vehicle, n = 2) and blocking (administration of compound 2, n = 2) conditions are presented in Figure 3; the whole-body maximum intensity projections are shown in Figure S3 in the Supplementary Material. The overall biodistribution of [^18F]9 under baseline conditions corresponded to the known quite ubiquitous but physiologically not very dense expression of A2B receptors. Although higher levels of the A2B receptor protein have been reported in the literature for certain cell types, such as alveolar epithelial cells and endothelial cells, the resemblance of the TACs in peripheral organs such as lungs under baseline and blocking conditions indicated no target-specific retention of [^18F]9 (TAC peak SUV lung: 3.09 and 2.88 vs. 2.30 and 1.57, resp.; SUV60 min p.i., lung: 0.44 and 0.25 vs. 0.32 and 0.20, resp.). […] This discrepancy between our and Petroni’s results might indicate differences in the biological effects exerted by agonistic (BAY60-6583) or antagonistic (compound 2) A2B receptor ligands, as well as model-related differences such as the expression of A2B receptors. The latter option could also explain the about 10-fold lower uptake of [^18F]9 in the brown adipose tissue (BAT) of female CD-1 mice in comparison to the uptake of [^11C]-4 in the BAT of male Wistar rats.
The biodistribution of the radiotracer was assessed in female CD-1 mice (30.6 ± 0.4 g bodyweight) using a dedicated small-animal PET-MRI scanner (nanoScan, Mediso, Hungary) over 60 min followed by a subsequent T1-weighted MR. The anaesthetized (2% isoflurane, carrier gas mixture of 40% air and 60% O2) female CD-1 mice were kept on a heated animal bed to maintain body temperature during imaging. Vehicle (10% DMSO in isotonic 0.9% NaCl solution) or compound 2 at 1 mg/kg bodyweight were co-injected with the tracer ([^18F]9: injected dose of 6.9 ± 0.1 MBq, equivalent to 10.4 ± 0.9 fmol/g bodyweight) intravenously 20 seconds after starting the dynamic PET acquisition, performed in normal mode and with a coincidence mode 1–5. For subsequent dynamic reconstructions (Nucline v2.01, Mediso, Hungary) by Ordered Subset Expectation Maximization (OSEM3D) with an attenuation correction with four iterations, six subsets, and a voxel size of 0.4 mm^3, list mode data were sorted into sinograms (12 × 10 s, 6 × 30 s, 5 × 60 s, and 10 × 300 s). PMOD software (v4.005, PMOD Technologies LLC, Zurich, Switzerland) was used for analysis of reconstructed studies and the results are expressed as standardized uptake value (SUV) given in mean ± SD.

[9] = blocking (compound 2, 1 mg/kg co-injected)

Ki [1]: 2.51 ± 0.58 nM
Ki ([2]; [3H]MSX-2, mean ± SEM of three independent assays): 107 ± 15 nM
Selectivity Ratio Ki(Ax)/Ki(A2B): A2A/A2B ([2]; ratio of Ki values): 43
Ki ([3]; [3H]CCPA, mean ± SEM of three independent assays): 149 ± 26 nM
Selectivity Ratio Ki(Ax)/Ki(A2B): A1/A2B ([3]; ratio of Ki values): 59
Ki ([4]; [3H]PSB-11, mean ± SEM of three independent assays): 286 ± 10 nM
Selectivity Ratio Ki(Ax)/Ki(A2B): A3/A2B ([4]; ratio of Ki values): 114
Structure (SMILES): O=c1[nH]c(=O)c2cc(-c3ccnc(F)c3)c(-c3ccco3)nc2[nH]1 [Compound 9, 6-(2-Fluoropyridin-4-yl)-7-(furan-2-yl)pyrido[2,3-d]pyrimidine-2,4(1H,3H)-dione]

Structure (SMILES): O=C(Nc1cnc(-c2ccnc([18F])c2)c(-c2ccccc2F)n1)C1CC1 [[^18F]1]
intact radiotracer in plasma [5]: 35%

logD [6]: 1.4 ± 0.1
activity concentration in urine (SUV) ([7]; CD-1 mice): 75
intact radiotracer, fraction of total activity in plasma ([7]; CD-1 mice, i.v., n = 2): about 60%
intact tracer in plasma, RP-HPLC, calculated considering the 93% recovery ([7]; mouse plasma): 60%
intact radiotracer in plasma, MLC ([7]; mouse plasma, exemplary MLC chromatogram): 57%
intact radiotracer in plasma, RP-HPLC ([7]; mouse plasma, exemplary RP-HPLC chromatogram): 64%
SUV 60 min p.i. lung ([8]; baseline (vehicle)): 0.44 and 0.25
TAC peak SUV lung ([8]; baseline (vehicle)): 3.09 and 2.88
SUV brain after 60 min p.i. ([8]; baseline, mean (single values)): 0.11 (0.14 and 0.08)
initial TAC peak SUV brain ([8]; baseline, mean (single values)): 0.19 (0.20 and 0.17)
SUV 60 min p.i. lung [8, 9]: 0.32 and 0.20
TAC peak SUV lung [8, 9]: 2.30 and 1.57
TAC peak SUV brain ([8]; co-administration of compound 2, mean (single values)): 0.12 (0.11 and 0.13)
fold lower uptake in brown adipose tissue (BAT) versus [11C]-4 in BAT of male Wistar rats ([8]; female CD-1 mice, comparison with ref 13): about 10 fold
Structure (SMILES): O=c1[nH]c(=O)c2cc(-c3ccnc([18F])c3)c(-c3ccco3)nc2[nH]1 [[^18F]9]
